Two compounds from ChEMBL document CHEMBL1145064, “Fluorine substitution can block CYP3A4 metabolism-dependent inhibition: identification of (S)-N-[1-(4-fluoro-3- morpholin-4-ylphenyl)ethyl]-3- (4-fluorophenyl)acrylamide as an orally bioavailable KCNQ2 opener devoid of CYP3A4 metabolism-dependent inhibition” (J Med Chem, 2003) can be followed below.

Structures are written as SMILES.

In series [1] the target is T1, Cytochrome P450 3A4 (Homo sapiens, UniProt P08684).
Description: Inhibition of recombinant human Cytochrome P450 3A4 with BFC [7-benzyloxy-4-trifluoromethylcoumarin] after 45 minutes
Series [2] has as its target Potassium voltage-gated channel subfamily KQT member 2 (Homo sapiens, UniProt O43526). Put plainly: Effective concentration against Potassium voltage gated channel, KQT-like subfamily, member 2 expressed in SH-SY5Y human neuroblastoma cells. The class given is cell-based.
A short description of series [3]: Elimination half life in rat after i.v. dose of 1 mg/kg. The class given is ADME, organism-based. The arrangement: dose 1 mg/kg, route intravenous. Particulars: in vivo, iv.
The nature of series [4]: Oral bioavailability in rat after oral administration of 10 mg/kg dose. The class given is ADME, organism-based. Particulars: in vivo.
The target of series [5] is T1, Cytochrome P450 3A4. The source holds these as a separate data set.
Description: Inhibition of recombinant human Cytochrome P450 3A4 using BFC [7-benzyloxy-4-trifluoromethylcoumarin] after 30 minutes
In series [6] the target is Potassium voltage-gated channel subfamily KQT member 2 (Mus musculus) (UniProt Q9Z351). Put plainly: Effective concentration against Potassium voltage gated channel KQT-like subfamily, member 2 (mouse) expressed in HEK 293 cells.
Sequence of Potassium voltage-gated channel subfamily KQT member 2 (Mus musculus) (Q9Z351 whole entry, looked up): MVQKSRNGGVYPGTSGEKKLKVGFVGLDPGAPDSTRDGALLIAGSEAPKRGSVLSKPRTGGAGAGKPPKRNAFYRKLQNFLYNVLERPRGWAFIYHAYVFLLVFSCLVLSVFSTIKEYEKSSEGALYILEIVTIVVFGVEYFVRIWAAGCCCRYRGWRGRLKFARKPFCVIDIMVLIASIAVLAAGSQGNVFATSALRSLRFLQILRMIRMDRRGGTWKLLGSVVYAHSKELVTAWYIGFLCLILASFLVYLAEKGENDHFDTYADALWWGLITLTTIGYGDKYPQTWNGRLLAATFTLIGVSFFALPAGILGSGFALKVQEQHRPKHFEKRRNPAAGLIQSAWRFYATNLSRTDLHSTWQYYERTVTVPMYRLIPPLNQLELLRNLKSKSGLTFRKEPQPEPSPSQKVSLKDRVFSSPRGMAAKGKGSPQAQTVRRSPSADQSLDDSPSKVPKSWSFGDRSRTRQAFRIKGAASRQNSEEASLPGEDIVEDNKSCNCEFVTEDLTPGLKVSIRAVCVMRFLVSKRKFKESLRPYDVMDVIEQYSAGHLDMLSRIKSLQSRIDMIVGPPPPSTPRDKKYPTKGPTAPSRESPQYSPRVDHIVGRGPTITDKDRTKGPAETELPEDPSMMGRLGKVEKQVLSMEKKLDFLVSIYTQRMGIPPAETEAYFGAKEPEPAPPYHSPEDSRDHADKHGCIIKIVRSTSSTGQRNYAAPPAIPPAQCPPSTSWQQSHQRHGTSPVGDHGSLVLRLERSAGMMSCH
A short description of series [7]: Plasma clearance in rat after i.v. dose of 1 mg/kg. Particulars: iv. Set-up: dose 1 mg/kg, route intravenous. The class given is ADME, organism-based.
In series [8] the target is T1, Cytochrome P450 3A4. This is another data set of the same source.
Description: Inhibition of recombinant human Cytochrome P450 3A4 with BFC [7-benzyloxy-4-trifluoromethylcoumarin] after 5 minutes
Series [9] addresses T1, Cytochrome P450 3A4. This is another data set of the same source.
Description: Inhibition of recombinant human Cytochrome P450 3A4 with BFC [7-benzyloxy-4-trifluoromethylcoumarin] after 15 minutes
Series [10] can be described thus: Vd compound was determined in rat after i.v. dose of 1 mg/kg. The class given is ADME, organism-based. The arrangement: dose 1 mg/kg, route intravenous. The note with it: in vivo, iv.
The target in series [11] is T1, Cytochrome P450 3A4. The series is described as follows: Inhibition of recombinant human Cytochrome P450 3A4 with Benzoylresorufin. The class given is ADME.
A further series deals with Cytochrome P450 2C9 (Homo sapiens, UniProt P11712). Put plainly: Inhibition of recombinant human Cytochrome P450 2C9. The class given is ADME.
Sequence of Cytochrome P450 2C9 (P11712 whole entry): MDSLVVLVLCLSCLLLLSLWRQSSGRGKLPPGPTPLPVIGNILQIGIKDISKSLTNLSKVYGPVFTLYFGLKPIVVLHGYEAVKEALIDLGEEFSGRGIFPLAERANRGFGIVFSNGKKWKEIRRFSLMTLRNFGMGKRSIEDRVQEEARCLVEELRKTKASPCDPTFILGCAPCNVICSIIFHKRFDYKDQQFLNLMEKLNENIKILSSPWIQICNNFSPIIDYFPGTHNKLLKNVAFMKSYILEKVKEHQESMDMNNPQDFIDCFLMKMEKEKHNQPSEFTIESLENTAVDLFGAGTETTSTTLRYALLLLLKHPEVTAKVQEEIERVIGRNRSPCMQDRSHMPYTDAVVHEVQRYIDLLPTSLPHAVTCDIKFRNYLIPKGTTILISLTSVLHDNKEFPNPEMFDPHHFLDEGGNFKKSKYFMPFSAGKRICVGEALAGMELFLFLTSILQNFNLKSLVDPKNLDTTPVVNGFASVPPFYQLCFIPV
In the next series the target is Cytochrome P450 2D6 (Homo sapiens, UniProt P10635). Put plainly: Inhibition of recombinant human Cytochrome P450 2D6. Type of series: ADME.
Sequence of Cytochrome P450 2D6 (P10635 whole entry): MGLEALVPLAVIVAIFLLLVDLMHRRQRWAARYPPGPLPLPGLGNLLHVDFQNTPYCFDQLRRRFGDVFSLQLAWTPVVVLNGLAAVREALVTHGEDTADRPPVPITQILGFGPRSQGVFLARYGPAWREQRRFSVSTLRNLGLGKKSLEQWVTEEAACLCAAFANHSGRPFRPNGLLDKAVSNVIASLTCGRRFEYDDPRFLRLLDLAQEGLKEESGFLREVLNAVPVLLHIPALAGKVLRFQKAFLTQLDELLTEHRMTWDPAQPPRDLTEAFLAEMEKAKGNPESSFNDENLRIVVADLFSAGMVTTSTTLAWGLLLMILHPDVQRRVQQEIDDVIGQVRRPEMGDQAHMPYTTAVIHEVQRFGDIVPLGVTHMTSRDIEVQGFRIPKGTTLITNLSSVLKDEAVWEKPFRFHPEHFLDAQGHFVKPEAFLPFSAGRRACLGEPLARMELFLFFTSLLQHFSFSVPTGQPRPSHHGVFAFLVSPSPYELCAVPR
In series [12] the target is T1, Cytochrome P450 3A4. Type of series: ADME.
Series [13] deals with Cytochrome P450 2C19 (Homo sapiens) (UniProt P33261). The series is described as follows: Inhibition of recombinant human Cytochrome P450 2C19.
Sequence of Cytochrome P450 2C19 (Homo sapiens) (P33261 whole entry, looked up): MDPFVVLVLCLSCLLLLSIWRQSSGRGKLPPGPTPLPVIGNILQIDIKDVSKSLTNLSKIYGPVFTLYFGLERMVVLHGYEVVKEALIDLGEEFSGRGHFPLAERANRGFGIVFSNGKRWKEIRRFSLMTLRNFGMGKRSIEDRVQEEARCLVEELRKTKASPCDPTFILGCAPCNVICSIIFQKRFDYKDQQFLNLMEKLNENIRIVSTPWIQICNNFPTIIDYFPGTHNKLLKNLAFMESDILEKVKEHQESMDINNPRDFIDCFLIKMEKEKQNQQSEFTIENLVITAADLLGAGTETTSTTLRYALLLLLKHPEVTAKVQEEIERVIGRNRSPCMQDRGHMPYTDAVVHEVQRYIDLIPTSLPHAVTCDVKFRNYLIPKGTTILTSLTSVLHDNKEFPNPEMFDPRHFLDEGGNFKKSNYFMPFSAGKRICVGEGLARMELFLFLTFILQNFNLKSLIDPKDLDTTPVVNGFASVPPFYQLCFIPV
A further series concerns the target T2, Cytochrome P450 1A2 (Homo sapiens, UniProt P05177).
T2 sequence (P05177 whole entry): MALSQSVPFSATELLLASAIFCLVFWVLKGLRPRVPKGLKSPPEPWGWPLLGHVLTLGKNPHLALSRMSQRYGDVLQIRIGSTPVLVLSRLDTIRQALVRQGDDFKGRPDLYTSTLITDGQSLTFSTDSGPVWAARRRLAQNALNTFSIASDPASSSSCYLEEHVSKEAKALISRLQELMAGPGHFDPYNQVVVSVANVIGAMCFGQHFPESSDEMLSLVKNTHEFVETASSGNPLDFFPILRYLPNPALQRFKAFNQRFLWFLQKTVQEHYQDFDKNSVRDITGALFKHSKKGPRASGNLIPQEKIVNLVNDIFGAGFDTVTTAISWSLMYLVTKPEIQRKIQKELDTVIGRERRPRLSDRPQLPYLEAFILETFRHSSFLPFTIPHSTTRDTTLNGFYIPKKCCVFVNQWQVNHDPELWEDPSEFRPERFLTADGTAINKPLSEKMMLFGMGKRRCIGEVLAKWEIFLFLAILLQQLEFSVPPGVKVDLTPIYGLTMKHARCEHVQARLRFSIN
Put plainly: Inhibition of recombinant human Cytochrome P450 1A2. Type of series: ADME.

T1 sequence (P08684 whole entry): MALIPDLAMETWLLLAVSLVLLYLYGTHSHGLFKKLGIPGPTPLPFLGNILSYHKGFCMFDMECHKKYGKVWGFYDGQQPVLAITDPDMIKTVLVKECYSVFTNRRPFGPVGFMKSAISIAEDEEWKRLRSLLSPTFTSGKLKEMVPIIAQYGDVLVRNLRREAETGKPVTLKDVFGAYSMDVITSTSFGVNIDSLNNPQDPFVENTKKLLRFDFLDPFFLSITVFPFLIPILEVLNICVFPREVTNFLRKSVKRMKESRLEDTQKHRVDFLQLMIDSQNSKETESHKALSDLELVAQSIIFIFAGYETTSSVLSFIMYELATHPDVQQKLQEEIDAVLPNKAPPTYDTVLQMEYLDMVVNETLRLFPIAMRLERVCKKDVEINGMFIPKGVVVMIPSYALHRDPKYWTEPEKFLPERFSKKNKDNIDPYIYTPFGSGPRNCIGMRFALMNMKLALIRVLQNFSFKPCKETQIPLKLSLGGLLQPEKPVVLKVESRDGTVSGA
Sequence of Potassium voltage-gated channel subfamily KQT member 2 (O43526 whole entry): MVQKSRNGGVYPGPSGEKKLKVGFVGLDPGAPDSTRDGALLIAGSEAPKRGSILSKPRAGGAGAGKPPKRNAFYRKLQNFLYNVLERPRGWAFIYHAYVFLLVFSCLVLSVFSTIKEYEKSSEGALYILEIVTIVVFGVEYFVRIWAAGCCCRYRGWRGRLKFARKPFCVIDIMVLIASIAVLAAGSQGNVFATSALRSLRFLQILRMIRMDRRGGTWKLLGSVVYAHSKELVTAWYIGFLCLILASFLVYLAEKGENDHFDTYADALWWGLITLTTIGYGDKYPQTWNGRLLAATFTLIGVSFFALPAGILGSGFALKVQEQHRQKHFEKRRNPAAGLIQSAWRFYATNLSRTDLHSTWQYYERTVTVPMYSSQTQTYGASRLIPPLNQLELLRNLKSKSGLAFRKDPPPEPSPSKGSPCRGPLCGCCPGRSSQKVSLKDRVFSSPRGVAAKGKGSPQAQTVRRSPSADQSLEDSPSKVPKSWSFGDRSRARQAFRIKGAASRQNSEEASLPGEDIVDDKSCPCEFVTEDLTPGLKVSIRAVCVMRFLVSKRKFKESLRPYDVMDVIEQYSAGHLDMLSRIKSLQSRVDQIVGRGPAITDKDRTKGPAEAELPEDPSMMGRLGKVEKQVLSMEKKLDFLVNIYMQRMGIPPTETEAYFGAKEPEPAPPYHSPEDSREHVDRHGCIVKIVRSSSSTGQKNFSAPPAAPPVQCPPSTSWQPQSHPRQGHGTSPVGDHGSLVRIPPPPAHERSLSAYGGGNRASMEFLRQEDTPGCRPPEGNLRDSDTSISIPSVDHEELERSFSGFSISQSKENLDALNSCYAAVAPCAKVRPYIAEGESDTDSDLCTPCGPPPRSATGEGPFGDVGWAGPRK

Regarding `C[C@H](NC(=O)/C=C/c1ccc(F)cc1)c1ccc(F)c(N2CCOCC2)c1`, the IC50 (usually the concentration needed to halve the response being measured) on Cytochrome P450 3A4 [1] was 19 µM; on Cytochrome P450 3A4 [5] it was 19 µM; against Cytochrome P450 3A4 [8] it was 18 µM; against Cytochrome P450 3A4 [9], 21 µM. Moreover, the EC50 – broadly, the midpoint of the concentration-response curve – amounted to 1.55 µM in series [2] and 1.2 µM in series [6]. Besides, in [3], the half-life (in general, the time needed for the level to fall by half in the phase considered) was 3.5 h. The bioavailability – broadly, the share of a dose that reaches the circulation, judged against a reference dose that is usually intravenous – in [4] amounted to 84%. In addition, the clearance (usually the rate of elimination divided by the concentration) in [7] was found to be 17.8 mL/min/kg. Moreover, the Vd (commonly the apparent volume that relates the amount in the body to the concentration in plasma or blood) in series [10] came to 3.3 L/kg.
As for `C[C@H](NC(=O)/C=C/c1ccccc1)c1cccc(N2CCOCC2)c1`, the half-maximal inhibitory concentration (IC50) on Cytochrome P450 3A4 [11] was 76 µM; at Cytochrome P450 2C9, 5.3 µM; at Cytochrome P450 3A4 [1], 22 µM; at Cytochrome P450 2D6, more than 100 µM; against Cytochrome P450 3A4 [5], 33 µM; at Cytochrome P450 3A4 [12] it was 27 µM. The half-maximal inhibitory concentration (IC50) in series [13] was 13 µM; on Cytochrome P450 1A2 it was 78 µM; against Cytochrome P450 3A4 [8], 96 µM; on Cytochrome P450 3A4 [9] it was 62 µM. Further, the EC50 came out at 0.69 µM in series [2] and 3 µM in series [6].
